# In article PMC9280689, “Resistance to Powdery Mildew in Qingke Involves the Accumulation of Aromatic Phenolamides Through Jasmonate-Mediated Activation of Defense-Related Genes” (Frontiers in Plant Science, 2022):
# Biological target: T1, HvTBT2 (Hordeum vulgare, UniProt A0A8I6X4Z6)
# T1 construct: gene LOC123447140; full-length cDNA in pGEX-6p-1, GST fusion, E. coli BL21(DE3), purified
# Experiment: LC-MS product assay
# Format: biochemical
# Conditions: acyl donor; amine acceptor 100 μM (which amine not told); 10 mM MgCl2, Tris-HCl pH 7.4, 30 °C
# Description: LC-MS product assay on HvTBT2
# T1 sequence (A0A8I6X4Z6 entry or part of it): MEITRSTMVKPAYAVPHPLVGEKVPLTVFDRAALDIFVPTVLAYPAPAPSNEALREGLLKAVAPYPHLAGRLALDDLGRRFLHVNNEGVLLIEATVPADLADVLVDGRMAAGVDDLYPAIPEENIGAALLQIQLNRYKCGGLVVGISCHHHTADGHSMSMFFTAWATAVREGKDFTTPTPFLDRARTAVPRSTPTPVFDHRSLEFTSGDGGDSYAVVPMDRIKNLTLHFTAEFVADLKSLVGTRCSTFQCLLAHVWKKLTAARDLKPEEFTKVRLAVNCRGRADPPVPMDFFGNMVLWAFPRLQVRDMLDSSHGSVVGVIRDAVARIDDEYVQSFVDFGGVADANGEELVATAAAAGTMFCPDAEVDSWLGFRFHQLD
smiles,measurement,value
COc1cc(/C=C/C(=O)SCCNC(=O)CCNC(=O)[C@H](O)C(C)(C)COP(=O)(O)OP(=O)(O)OC[C@H]2O[C@@H](n3cnc4c(N)ncnc43)[C@H](O)[C@@H]2OP(=O)(O)O)ccc1O [Feruloyl-CoA],Km,382 ± 98.3 µM
